The values below come from patent US10918610B2, “Compounds and methods of promoting myelination” (Case Western Reserve University, priority 2017, dated 2021).

In experiment [1] the test system is EpiSC-derived OPCs. Description: Formation of differentiated MBP+ oligodendrocytes from OPCs in vitro (high-content imaging). In kind it is cell-based, mouse. From the text: EpiSC-derived OPCs were obtained using in vitro differentiation protocols and culture conditions described previously. To ensure uniformity throughout all in vitro screening experiments, EpiSC-derived OPCs were sorted to purity by fluorescence activated cell sorting at passage five with conjugated CD 140a-APC (eBioscience, 17-1401; 1:80) and NG2-AF488 (Millipore, AB5320A4; 1:100) antibodies. Sorted batches of OPCs were expanded and frozen down in aliquots. OPCs were thawed into growth conditions for one passage before use in further assays. Cultures were regularly tested and shown to be mycoplasma free.
EpiSC-derived OPCs were grown and expanded in poly-ornithine (PO) and laminin-coated flasks with growth medium (DMEM/F12 supplemented with N2-MAX (R&D Systems), B-27 (ThermoFisher), GlutaMax (Gibco), FGF2 ([…], R&D systems, 233-FB-025) and PDGF-AA ([…], R&D systems, 233-AA-050) before harvesting for plating. The cells were seeded onto poly-D-lysine 96-well CellCarrier plates (PerkinElmer) coated with laminin (Sigma, L2020; 15 μg/ml) using multi-channel pipet. For the experiment, 800,000 cells/mL stock in differentiation medium (DMEM/F12 supplemented with N2-MAX and B-27) was prepared and stored on ice for 2 h. […]
Plates were imaged on the Operetta High Content Imaging and Analysis system (PerkinElmer) and a set of 6 fields captured from each well resulting in an average of 1200 cells being scored per well. […] Each traced nucleus region was then expanded by 50% and cross-referenced with the […] (MBP) stain to identify oligodendrocyte nuclei, and from this the percentage of oligodendrocytes was calculated. In some experiments, the total process length of MBP+ oligodendrocytes was calculated as previously described.
OPCs were generated from the EpiSC5 cell line. […] To ensure uniformity throughout all in vitro screening experiments, EpiSC-derived OPCs were sorted to purity by fluorescence activated cell sorting at passage five with conjugated CD 140a-APC (eBioscience, 17-1401; 1:80) and NG2-AF488 (Millipore, AB5320A4; 1:100) antibodies. […]

For experiment [2], the system named is EpiSC-derived OPCs. Description: Oligodendrocyte formation and myelin sheaths on electrospun microfibers. In kind it is cell-based, mouse. The settings on record: 100 nM, versus untreated OPCs; microscopic images. How it is done: A 12-well plate containing Mimetex aligned scaffold (microfiber plate, AMSBIO, AMS.TECL-006-1X, Electrospun poly-L-lactide Scaffold, […] fibre diameter cell crown inserts) was prepared as previously described. Briefly, inserts were sterilized with 70% ethanol and washed with PBS before being coated with polyornithine and laminin. After laminin coating, 100,000 cells/mL of EpiSC-derived OPCs were plated in differentiation medium. After 24 h the media was replaced with fresh media containing small molecule treatments. […] Plates were fixed with 4% PFA, permeabilized with 0.1% Triton X-100, and blocked with 10% donkey serum (v/v) in PBS for 60 min. Plates were stained for MBP (Abcam, ab7349; 1:100) and DAPI staining (Sigma; 5 μg/ml). After staining, the inserts were moved into new 12-well plate and covered with 2 mL of PBS before imaging in Operetta high content Imaging and analysis system. Plates were imaged on the Operetta High Content Imaging and Analysis system (PerkinElmer) and a set of 8 fields captured from each well resulting in an average of 45,000 cells being scored per well. Analysis (PerkinElmer Harmony and Columbus software) identified intact nuclei stained by DAPI and calculated the MBP signal intensity per cell per well. Microfiber insert tracking images were taken using a Leica DMi8 with a 20× Dry/NA 0.40 objective. […]

With `CCN(C/C=C\c1ccc(C2CCCCC2)c(Cl)c1)C1CCCCC1` [Cis-N-cyclohexyl-N-ethyl-3-(3-chloro-4-cyclohexylphenyl)prop-2-enylamine], the “number of differentiated MBP+ oligodendrocytes from OPCs compared with ketoconazole” value with EpiSC-derived OPCs [1] (63 nM, 125 nM, 250 nM and 500 nM versus ketoconazole 2.5 μM) was “at higher rates than ketoconazole”. In addition, in the experiment on EpiSC-derived OPCs [1] (0.03, 0.1, 0.3 and 1 um, 40,000 cells per well, 3 days), the “formation of MBP+ oligodendrocytes in culture (FIG. 1A)” value is “enhances formation of MBP+ oligodendrocytes”. For the same compound, the “formation of MBP+ oligodendrocytes in in vitro cultures of OPCs (FIG. 4)” value in the experiment with EpiSC-derived OPCs [1] (wider range of concentrations (2 nM to 500 nM), 50,000 cells per well, N2B27 media, no growth factors) is “enhances formation of MBP+ oligodendrocytes”. In the experiment with EpiSC-derived OPCs [2], the “amount of myelin sheaths formed on electrospun poly-L-lactide scaffold microfibers” value is “significant increase in the amount of myelin sheaths”.
